In patent US7790711B2, “Inhibitors of 11β-Hydroxysteroid Dehydrogenase” (Hoffmann-La Roche Inc., priority 2007, dated 2010):

What follows are compounds tested against T1, human 11betaHSD1 (Homo sapiens, UniProt P28845) (assay: in vitro inhibition of 11β-HSD1 in H4IIE cells stably transfected with human 11betaHSD1 (cortisone to cortisol, ELISA)). Details: H4IIE cells stably transfected with full-length human 11betaHSD1 cDNA; 200 nM cortisone, 2 hours at 37° C.; cortisol by competitive ELISA.
T1 construct: stably transfected with full-length human 11betaHSD1 cDNA; expressed in transfected cells
Type: cell-based
Experimental: H4IIE cells stably transfected with full-length human 11betaHSD1 cDNA were propagated and expanded in DMEM high glucose media (Invitrogen Cat# 11995-065), supplemented with 10% FCS (Invitrogen Cat# 10082-147), 100 units/mL and 100 μg/mL pen/strep (Invitrogen Cat#15140-122), and geneticin (800 μg/mL). One day prior to assay, cells were released from flasks using trypsin/EDTA, centrifuged, and washed with plating media (DMEM high glucose, without phenol red; Invitrogen Cat# 21063-029, supplemented with 2% charcoal stripped FCS; Gemini Cat# 100-119). From a 500,000 cells/mL suspension in plating media, 200 μL of cells were seeded into each well of a 96-well coated plate (BioCoat Cat#356461) and cultured overnight at 37° C. The following day, serially diluted 11betaHSD1 inhibitor compounds dissolved in DMSO were added to DMEM with BSA (2 mg/mL final). The final DMSO concentration was 1%. Media was aspirated from plates, and compounds in media were added to each well. The plates were incubated at 37° C. for 1 hour to allow for cellular uptake of compounds. 10 μL of substrate (cortisone) was then added to each well (200 nM final concentration) and incubated for 2 hours at 37° C. Plates were then transferred to ice and 80 μL of media transferred to a 96-well plate and stored at −30° C.
Quantitation of cortisol in cell media was performed by competitive ELISA using ELISA-Light (Tropix Cat# T10206/EL100S4), anti-cortisol EIA antibody (Assay Designs, Inc. Cat#80-1148), and cortisol-enzyme conjugate (Assay Designs, Inc. Cat# 80-1147). 384-well plates (Falcon Cat#353988) were precoated with anti-mouse IgG (Sigma Cat# M-1397) suspended in 0.9% NaCl (5 mg/mL), 50 μL per well, overnight at 4° C. Plates were washed with PBS, 0.1% Tween-20, then washed with PBS alone. Plates were blocked with Blocking Buffer (Tropix Cat# AI075) for 2 hours at room temperature. The plates were then washed as previously described. Assay samples were thawed, diluted 1:8 in DMEM, 2 mg/mL BSA, 1% DMSO, and 24 μL was transferred to wells of a pre-coated 384-well plate, as well as varying amounts of cortisol standard. To each well, 12 μL of cortisol-conjugate and 12 μL of anti-cortisol EIA antibody were added and incubated 2 hrs at room temperature on a orbital plate shaker. The wells were then emptied by inversion, then washed three times with 100 μL of PBS, 0.05% Tween-20, and then 2 times with 100 μL of Assay Buffer (Tropix). 60 μL of CDP-STAR (Tropix) was added to each well and incubated 10 minutes at room temperature. Chemiluminescence was measured using a Victor V Reader (Perkin Elmer). Cortisol in each sample was interpolated from a standard curve generated with known amounts of cortisol. IC50 values were calculated using the curve fitting software XLFit4 (IDBS).

T1 sequence (P28845 whole entry): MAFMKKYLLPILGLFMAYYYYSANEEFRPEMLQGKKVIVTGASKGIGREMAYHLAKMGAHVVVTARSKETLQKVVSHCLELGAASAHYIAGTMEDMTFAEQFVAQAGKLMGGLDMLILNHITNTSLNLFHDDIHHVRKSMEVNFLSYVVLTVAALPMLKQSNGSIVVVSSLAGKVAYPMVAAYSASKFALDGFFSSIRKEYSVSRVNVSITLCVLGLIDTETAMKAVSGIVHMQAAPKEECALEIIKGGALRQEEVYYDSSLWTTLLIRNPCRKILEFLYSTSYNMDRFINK

Row | SMILES | IC50 [nM]
1 | O=C(NC1C2CC3CC(C2)CC1C3)c1cnn(-c2ccccc2)c1N1CCCC1 (stereo not drawn) [Example 13, 1-Phenyl-5-pyrrolidin-1-y1-1H-pyrazole-4-carboxylic acid adamantan-2-ylamide] | 0.55
2 | CN(Cc1ccccc1)c1c(C(=O)NC2C3CC4CC(C3)CC2C4)cnn1-c1ccccc1 (stereo not drawn) [Example 10, 5-(Benzyl-methyl-amino)-1-phenyl-1H-pyrazole-4-carboxylic acid adamantan-2-ylamide] | 9.1
3 | O=C(NC1C2CC3CC(C2)CC1C3)c1cnn(-c2ccccc2)c1N1CCCCCC1 (stereo not drawn) [Example 14, 5-Azepan-1-y1-1-phenyl-1H-pyrazole-4-carboxylic acid adamantan-2-ylamide] | 1
4 | O=C(NC1C2CC3CC(C2)CC1C3)c1cnn(-c2ccccc2)c1NCC1CC1 (stereo not drawn) [Example 4, 5-(Cyclopropylmethyl-amino)-1-phenyl-1H-pyrazole-4-carboxylic acid adamantan-2-ylamide] | 1.9
5 | O=C(NC1C2CC3CC(C2)CC1C3)c1cnn(-c2ccccc2)c1NCCCO (stereo not drawn) [Example 23, 5-(3-Hydroxy-propylamino)-1-phenyl-1H-pyrazole-4-carboxylic acid adamantan-2-ylamide] | 55
6 | O=C(NC1C2CC3CC(C2)CC1C3)c1cnn(-c2ccccc2)c1NC1CCCCC1 (stereo not drawn) [Example 5, 5-Cyclohexylamino-1-phenyl-1H-pyrazole-4-carboxylic acid adamantan-2-ylamide] | 4.7
7 | CC1CCCN(c2c(C(=O)NC3C4CC5CC(C4)CC3C5)cnn2-c2ccccc2)C1 (stereo not drawn) [Example 9, 5-(3-Methyl-piperidin-1-y1)-1-phenyl-1H-pyrazole-4-carboxylic acid adamantan-2-ylamide] | 3
8 | CN(CCO)c1c(C(=O)NC2C3CC4CC(C3)CC2C4)cnn1-c1ccccc1 (stereo not drawn) [Example 26, 5-[(2-Hydroxy-ethyl)-methyl-amino]-1-phenyl-1H-pyrazole-4-carboxylic acid adamantan-2-ylamide] | 14
9 | CC1CCC(C)N1c1c(C(=O)NC2C3CC4CC(C3)CC2C4)cnn1-c1ccccc1 (stereo not drawn) [Example 7, 5-(2,5-Dimethyl-pyrrolidin-1-y1)-1-phenyl-1H-pyrazole-4-carboxylic acid adamantan-2-ylamide] | 4
10 | CC(O)CNc1c(C(=O)NC2C3CC4CC(C3)CC2C4)cnn1-c1ccccc1 (stereo not drawn) [Example 21, 5-(2-Hydroxy-propylamino)-1-phenyl-1H-pyrazole-4-carboxylic acid adamantan-2-ylamide] | 41
11 | O=C(NC1C2CC3CC(C2)CC1C3)c1cnn(-c2ccccc2)c1NCc1ccccc1 (stereo not drawn) [Example 2, 5-Benzylamino-1-phenyl-1H-pyrazole-4-carboxylic acid adamantan-2-ylamide] | 14
12 | O=C(NC1C2CC3CC(C2)CC1C3)c1cnn(-c2ccccc2)c1NCc1cccnc1 (stereo not drawn) [Example 3, 1-Phenyl-5-[(pyridin-3-ylmethyl)-amino]-1H-pyrazole-4-carboxylic acid adamantan-2-ylamide] | 350
13 | O=C(NC1C2CC3CC(C2)CC1C3)c1cnn(-c2ccccc2)c1N1CCC(O)CC1 (stereo not drawn) [Example 18, 5-(4-Hydroxy-piperidin-1-y1)-1-phenyl-1H-pyrazole-4-carboxylic acid adamantan-2-ylamide] | 3
14 | COCCCNc1c(C(=O)NC2C3CC4CC(C3)CC2C4)cnn1-c1ccccc1 (stereo not drawn) [Example 27, 5-(3-Methoxy-propylamino)-1-phenyl-1H-pyrazole-4-carboxylic acid adamantan-2-ylamide] | 1.4
15 | O=C(NC1C2CC3CC(C2)CC1C3)c1cnn(-c2ccccc2)c1N1CCCC(O)C1 (stereo not drawn) [Example 19, 5-(3-Hydroxy-piperidin-1-y1)-1-phenyl-1H-pyrazole-4-carboxylic acid adamantan-2-ylamide] | 9.2
16 | O=C(NC1C2CC3CC(C2)CC1C3)c1cnn(-c2ccccc2)c1NCCO (stereo not drawn) [Example 22, 5-(2-Hydroxy-ethylamino)-1-phenyl-1H-pyrazole-4-carboxylic acid adamantan-2-ylamide] | 21

Further lines, results first:

Row | IC50 [nM] | SMILES
17 | 1.3 | CC1CCCN1c1c(C(=O)NC2C3CC4CC(C3)CC2C4)cnn1-c1ccccc1 (stereo not drawn) [Example 8, 5-(2-Methyl-pyrrolidin-1-y1)-1-phenyl-1H-pyrazole-4-carboxylic acid adamantan-2-ylamide]
18 | 3 | O=C(NC1C2CC3CC(C2)CC1C3)c1cnn(-c2ccccc2)c1N1CCOCC1 (stereo not drawn) [Example 15, 5-Morpholin-4-y1-1-phenyl-1H-pyrazole-4-carboxylic acid adamantan-2-ylamide]
19 | 13 | O=C(NC1C2CC3CC(C2)CC1C3)c1cnn(-c2ccccc2)c1N1CCC(O)C1 (stereo not drawn) [Example 20, 5-(3-Hydroxy-pyrrolidin-1-y1)-1-phenyl-1H-pyrazole-4-carboxylic acid adamantan-2-ylamide]
20 | 1.3 | CC(C)Nc1c(C(=O)NC2C3CC4CC(C3)CC2C4)cnn1-c1ccccc1 (stereo not drawn) [Example 1, 5-Isopropylamino-1-phenyl-1H-pyrazole-4-carboxylic acid adamantan-2-ylamide]
21 | 7.6 | O=C(NC1C2CC3CC(C2)CC1C3)c1cnn(-c2ccccc2)c1NC1CCC1 (stereo not drawn) [Example 6, 5-Cyclobutylamino-1-phenyl-1H-pyrazole-4-carboxylic acid adamantan-2-ylamide]
22 | 3.7 | CC1CN(c2c(C(=O)NC3C4CC5CC(C4)CC3C5)cnn2-c2ccccc2)CC(C)O1 (stereo not drawn) [Example 12, 5-(2,6-Dimethyl-morpholin-4-y1)-1-phenyl-1H-pyrazole-4-carboxylic acid adamantan-2-ylamide]
23 | 2 | O=C(NC1C2CC3CC(C2)CC1C3)c1cnn(-c2ccccc2)c1NCC1CCCO1 (stereo not drawn) [Example 25, 1-Phenyl-5-[(tetrahydro-furan-2-ylmethyl)-amino]-1H-pyrazole-4-carboxylic acid adamantan-2-ylamide]
24 | 7.5 | O=C(NC1C2CC3CC(C2)CC1C3)c1cnn(-c2ccccc2)c1NCCCCO (stereo not drawn) [Example 24, 5-(4-Hydroxy-butylamino)-1-phenyl-1H-pyrazole-4-carboxylic acid adamantan-2-ylamide]
25 | 6.4 | O=C(NC1C2CC3CC(C2)CC1C3)c1cnn(-c2ccccc2)c1N1CCCC(CO)C1 (stereo not drawn) [Example 16, 5-(3-Hydroxymethyl-piperidin-1-y1)-1-phenyl-1H-pyrazole-4-carboxylic acid adamantan-2-ylamide]
26 | 42 | O=C(NC1C2CC3CC(C2)CC1C3)c1cnn(-c2ccccc2)c1N1CCC[C@H]1CO (stereo partly drawn) [Example 17, 5-((S)-2-Hydroxymethyl-pyrrolidin-1-y1)-1-phenyl-1H-pyrazole-4-carboxylic acid adamantan-2-ylamide]
27 | 3.7 | CN(CCc1ccccc1)c1c(C(=O)NC2C3CC4CC(C3)CC2C4)cnn1-c1ccccc1 (stereo not drawn) [Example 11, 5-(Methyl-phenethyl-amino)-1-phenyl-1H-pyrazole-4-carboxylic acid adamantan-2-ylamide]
